This note sets out measurements from patent US8987250B2 (Gilead Sciences, Inc., priority 2012, dated 2015).

This experiment concerns HIV-IIIb. The experiment in a line: Test A: Antiviral Assay in MT4 Cells. The experiment is classed as cell-based. The note with it: Human immunodeficiency virus 1, IIIB, MT4, 120 h, Table 1; MT-4 cells infected with HIV-IIIb, 5 days of incubation, CellTiter-Glo; read-out: EC50. The procedure: The antiviral properties of a compound of the invention may be determined using Test A described below.
Test A: Antiviral Assay in MT4 Cells
For the antiviral assay utilizing MT-4 cells, 0.4 μL of […] test concentration of 3-fold serially diluted compound in DMSO was added to 40 μL of cell growth medium (RPMI 1640, 10% FBS, 1% penicilline/Streptomycine, 1% L-Glutamine, 1% HEPES) in each well of 384-well assay plates (10 concentrations) in quadruplicate.
One mL aliquots of 2×10e6 MT-4 cells were pre-infected for 1 and 3 hours respectively, @ 37° C. with 25 uL (MT4) or of either cell growth medium (mock-infected) or a fresh 1:250 dilution of an HIV-IIIb concentrated ABI stock (0.004m.o.i. for MT4 cells). Infected and uninfected cells were diluted in cell growth medium and 35 uL of 2000 (for MT4) cells was added to each well of the assay plates.
Assay plates were then incubated in a 37° C. incubator. After 5 days of incubation, […] of 2× concentrated CellTiter-Glo™ Reagent (catalog #G7573, Promega Biosciences, Inc., Madison, Wis.) was added to each well of the assay plate. Cell lysis was carried out by incubating at room temperature for 2-3 min and then chemiluminescence was read using the Envision reader (PerkinElmer). […]

Molecules are shown by their SMILES.

For `Cc1cc2nc(-c3ccnc(-c4cnc5cnn(C)c5c4)c3)sc2c(-c2ccc(Cl)cc2)c1[C@H](OC(C)(C)C)C(=O)O` [Compound 129], the EC50 was 48 nM.

`Cc1cc2nc(-c3cc(-c4ccc5c(cnn5C)c4)ncn3)sc2c(-c2ccc(Cl)cc2)c1[C@H](OC(C)(C)C)C(=O)O` [Compound 130]: the half-maximal effective concentration (EC50) was found to be 100 nM.

Take `Cc1cc2nc(-c3cncc(-c4ccc5c(cnn5C)c4)n3)sc2c(-c2ccc(Cl)cc2)c1[C@H](OC(C)(C)C)C(=O)O` [Compound 131]: the EC50 turned out to be 8 nM.

`Cc1cc2nc(-c3cnc4cn(C)nc4c3)sc2c(-c2ccc(Cl)cc2)c1[C@H](OC(C)(C)C)C(=O)O` [Compound 132]: the EC50 was 12 nM.

Take `Cc1cc2nc(-c3ccc4c(c3)c(N)nn4C)sc2c(-c2ccc(Cl)cc2)c1[C@H](OC(C)(C)C)C(=O)O` [Compound 133]: the EC50 came to 18 nM.

As to `Cc1cc2nc(-c3ccnc(-c4cnc(O)nc4)c3)sc2c(-c2ccc(Cl)cc2)c1[C@H](OC(C)(C)C)C(=O)O` [Compound 134], the EC50 came to 3230 nM.

Turning to `Cc1cc2nc(-c3ccnc(-c4cnc(N5CCOCC5)nc4)c3)sc2c(-c2ccc(Cl)cc2)c1[C@H](OC(C)(C)C)C(=O)O` [Compound 135], the half-maximal effective concentration (EC50) amounted to 17 nM.

Turning to `Cc1cc2nc(-c3ccnc(-c4cnc(N5CCN(C)CC5)nc4)c3)sc2c(-c2ccc(Cl)cc2)c1[C@H](OC(C)(C)C)C(=O)O` [Compound 136], the EC50 is 12 nM.

With `Cc1cc2nc(-c3cccc(-c4cnc5cnn(C)c5c4)c3)sc2c(-c2ccc(Cl)cc2)c1[C@H](OC(C)(C)C)C(=O)O` [Compound 137], the EC50 was 21 nM.

As to `Cc1cc2nc(-c3ccnc(-c4cnc(C5CCC5)nc4)c3)sc2c(-c2ccc(Cl)cc2)c1[C@H](OC(C)(C)C)C(=O)O` [Compound 138], the half-maximal effective concentration (EC50) is 65 nM.

In the case of `Cc1cc2nc(-c3ccnc(-c4ccc5c(c4)c(C4CC4)nn5C)c3)sc2c(-c2ccc(Cl)cc2)c1[C@H](OC(C)(C)C)C(=O)O` [Compound 139], the EC50 came out at 61 nM.

In the case of `Cc1cc2nc(-c3ccnc(-c4ccc(N5CCN(C)CC5)nc4)c3)sc2c(-c2ccc(Cl)cc2)c1[C@H](OC(C)(C)C)C(=O)O` [Compound 140], the EC50 came out at 5 nM.

In the case of `Cc1cc2nc(-c3cccc(-c4cnc(N(C)C)nc4)c3)sc2c(-c2ccc(Cl)cc2)c1[C@H](OC(C)(C)C)C(=O)O` [Compound 142], the EC50 worked out at 48 nM.

Take `COc1ncc(-c2cccc(-c3nc4cc(C)c([C@H](OC(C)(C)C)C(=O)O)c(-c5ccc(Cl)cc5)c4s3)c2)cn1` [Compound 143]: the half-maximal effective concentration (EC50) was 24 nM.

For `Cc1cc2nc(-c3cccc(-c4cnc(O)nc4)c3)sc2c(-c2ccc(Cl)cc2)c1[C@H](OC(C)(C)C)C(=O)O` [Compound 144], the EC50 was found to be 2610 nM.

With `Cc1cc2nc(-c3cccc(-c4cn(C)nc4C)c3)sc2c(-c2ccc(Cl)cc2)c1[C@H](OC(C)(C)C)C(=O)O` [Compound 145], the EC50 stood at 34 nM.

Turning to `Cc1cc2nc(-c3cccc(-c4cnn(C5CCCC5)c4)c3)sc2c(-c2ccc(Cl)cc2)c1[C@H](OC(C)(C)C)C(=O)O` [Compound 146], the EC50 worked out at 92 nM.

On to `Cc1cc2nc(-c3cccc(-c4cnn(CC(C)C)c4)c3)sc2c(-c2ccc(Cl)cc2)c1[C@H](OC(C)(C)C)C(=O)O` [Compound 147], for which the 50% effective concentration (EC50) turned out to be 59 nM.

Take `Cc1cc2nc(-c3ccnc(-c4cncc(C(=O)O)c4)c3)sc2c(-c2ccc(Cl)cc2)c1[C@H](OC(C)(C)C)C(=O)O` [Compound 148]: the EC50 worked out at 2700 nM.

For the compound `Cc1cc2nc(-c3ccnc(-c4cncc(C(N)=O)c4)c3)sc2c(-c2ccc(Cl)cc2)c1[C@H](OC(C)(C)C)C(=O)O` [Compound 149], the EC50 was 153 nM.

Regarding `Cc1cc2nc(-c3cccc(-c4cnn(Cc5ccccc5)c4)c3)sc2c(-c2ccc(Cl)cc2)c1[C@H](OC(C)(C)C)C(=O)O` [Compound 150], the EC50 is 91 nM.

With `Cc1cc2nc(-c3cccc(-c4cnn(C(C)C)c4)c3)sc2c(-c2ccc(Cl)cc2)c1[C@H](OC(C)(C)C)C(=O)O` [Compound 151], the EC50 was determined as 32 nM.

Usually EC50 stands for the midpoint of the concentration-response curve.
